According to ChEMBL document CHEMBL1155065, “A serine protease inhibitor from hemolymph of green mussel, Perna viridis” (Bioorg Med Chem Lett, 2008):
The source made the active and inactive calls. No cut-off for these calls is given here.

Key:
[1] = Inhibition of chymotrypsin
[2] = Inhibition of trypsin at 42 degC
[3] = Inhibition of trypsin at 37 degC
[4] = Inhibition of trypsin by Dixon plot
[5] = Inhibition of trypsin at 32 degC
[6] = Inhibition of trypsin
[7] = Inhibition of trypsin by classical double reciprocal plot

O=C(O)c1ccc(C(=O)O)c2c1c(C(=O)O)c1cccnc1[n+]2C(=O)O
Activity [1]: inactive | Ki [2]: 94 µM | Ki [3]: 97.1 µM | Ki [4]: 97.1 µM | Ki [5]: 102 µM | IC50 [6]: 102 µM | Ki [7]: 105 µM
